Data taken from paper PMC9081362, “Novel MDM2 Inhibitor XR-2 Exerts Potent Anti-Tumor Efficacy and Overcomes Enzalutamide Resistance in Prostate Cancer” (Frontiers in Pharmacology, 2022).

Target: MDM2 (Homo sapiens, UniProt Q00987)
Experiment: HTRF MDM2-p53 binding (displacement) assay

MDM2, sequence (Q00987 whole entry): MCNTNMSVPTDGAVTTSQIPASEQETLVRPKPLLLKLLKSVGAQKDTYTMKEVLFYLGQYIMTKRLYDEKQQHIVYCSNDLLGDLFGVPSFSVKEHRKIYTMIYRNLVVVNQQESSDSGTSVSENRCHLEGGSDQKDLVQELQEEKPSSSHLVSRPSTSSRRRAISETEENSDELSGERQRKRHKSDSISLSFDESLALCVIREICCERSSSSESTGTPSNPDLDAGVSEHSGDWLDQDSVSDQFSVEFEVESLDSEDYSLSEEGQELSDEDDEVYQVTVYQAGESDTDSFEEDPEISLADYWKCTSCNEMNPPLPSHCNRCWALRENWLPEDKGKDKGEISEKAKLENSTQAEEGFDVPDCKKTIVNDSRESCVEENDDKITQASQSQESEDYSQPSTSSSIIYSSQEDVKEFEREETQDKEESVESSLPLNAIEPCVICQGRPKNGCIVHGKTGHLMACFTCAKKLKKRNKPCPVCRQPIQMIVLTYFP
MDM2, sequence (P04637 whole entry partner): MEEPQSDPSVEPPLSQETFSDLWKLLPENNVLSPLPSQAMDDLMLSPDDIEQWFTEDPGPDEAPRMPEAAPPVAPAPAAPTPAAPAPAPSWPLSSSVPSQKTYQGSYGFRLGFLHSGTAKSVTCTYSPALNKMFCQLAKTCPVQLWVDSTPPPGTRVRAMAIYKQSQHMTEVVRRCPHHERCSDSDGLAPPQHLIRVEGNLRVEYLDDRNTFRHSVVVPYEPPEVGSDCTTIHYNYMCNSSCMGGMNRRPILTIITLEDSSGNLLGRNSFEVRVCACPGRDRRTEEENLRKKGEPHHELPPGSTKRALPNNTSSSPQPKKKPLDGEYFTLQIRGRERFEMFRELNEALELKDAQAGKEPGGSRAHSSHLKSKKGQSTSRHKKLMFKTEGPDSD

Structure (SMILES): COCCOCCOCCOC(=O)N1[C@@H](CC(C)(C)C)[C@@]2(C(=O)Nc3cc(Cl)ccc32)[C@@H](c2cccc(Cl)c2F)[C@@H]1C(=O)Nc1ccc(C(N)=O)cc1OC [XR-2, 2-(2-(2-methoxyethoxy)ethoxy)ethyl-(2′S,3R,4′S,5′R)-5'-((4-carbamoyl-2-methoxyphenyl)carbamoyl)-6-chloro-4'-(3-chloro-2-fluorophenyl)-2′-neopentyl-2-oxospiro[indoline-3,3′-pyrrolidine]-1′-carboxylate]
- HTRF MDM2-p53 binding (displacement) assay: The homogeneous time-resolved fluorescence binding assay proved that XR-2 directly inhibited MDM2–p53 interaction
